Laboratory results published in publication PMC5755735, “Discovery of indolylpiperazinylpyrimidines with dual-target profiles at adenosine A2A and dopamine D2 receptors for Parkinson's disease treatment” (PLoS ONE, 2018).
Several values for one entry are separate records, joined by “and”; a condition that tells them apart may be missing. Equal values may be shown once. Read-outs that look alike come from different tables or passages of the source.

Assays:
[1] = target: human A2A receptors expressed in CHO cells (Homo sapiens, UniProt P29274); assay: competition binding at human A2A adenosine receptors ([3H]NECA displacement); conditions: for Ki: displacement of [3H]NECA, CHO cells, 95% confidence limits, n = 3–6, read-out: Ki hA2A; for hA1/hA2A / hA3/hA2A: selectivity ratio of Ki values
Procedure: (§1) A two-step procedure was adopted to prepare membrane for radioligand binding from cells stably transfected with human adenosine receptor subtypes (hA1, hA2A and hA3 expressed on CHO cells). Firstly, cell fragments and nuclei were removed by using low-speed centrifugation (1,000 g for 10 min). After that, crude membrane fraction from supernatant was then sedimented at 100,000 g for 30 min. The membrane pellet was subsequently re-suspended in the specific binding buffer, frozen in liquid nitrogen and stored at -80°C. For measurement of adenylyl cyclase activity in the hA2B receptors, one-step centrifugation procedure was used; the homogenate was sedimented for 30 min at 54,000 g. The so-obtained crude membrane pellet was re-suspended in 50 mM Tris/HCl, pH 7.4 and used for the adenylyl cyclase assay immediately.
(§2) Non-specific binding was determined using theophylline 1 mM. […] Non-specific binding was determined using N^6-R-phenylisopropyl adenosine (R-PIA) 100 μM. ^41 The binding of [^3H]HEMADO to CHO cells transfected with hA3 adenosine receptors was carried out as described earlier. […] Non-specific binding was determined using R-PIA 100 μM.
(§3) The assay mixture was then filtered through the built-in filter at the bottom of the 96-well microplate filtration system (Millipore Multiscreen MAFC) and washed three times with 200 μL of cold buffer. After addition of 20 μL of scintillator to the dried filter plates, the filter bound radioactivity was counted on a Wallac Micro-Beta counter. All Ki values were calculated by non-linear curve fitting with the program SCTFIT [45].

[2] = target: T1, human A3 receptors expressed in CHO cells (Homo sapiens, UniProt P0DMS8); assay: competition binding at human A3 adenosine receptors ([3H]HEMADO displacement); conditions: displacement of [3H]HEMADO, 95% confidence limits, n = 3–6, read-out: Ki hA3
T1 sequence (P0DMS8 1-318): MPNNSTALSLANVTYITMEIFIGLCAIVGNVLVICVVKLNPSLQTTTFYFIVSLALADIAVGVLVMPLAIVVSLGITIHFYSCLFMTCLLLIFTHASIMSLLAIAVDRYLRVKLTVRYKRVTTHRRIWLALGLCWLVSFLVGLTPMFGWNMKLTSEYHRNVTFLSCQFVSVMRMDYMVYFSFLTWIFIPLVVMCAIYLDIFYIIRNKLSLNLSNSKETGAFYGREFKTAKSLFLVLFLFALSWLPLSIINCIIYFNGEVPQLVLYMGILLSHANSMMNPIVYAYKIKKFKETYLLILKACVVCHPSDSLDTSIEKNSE
Procedure: as §1, §2, §3

[3] = test system: Salmonella strains TA98 and TA100; assay: Ames mutagenicity test; format: cell-based, Salmonella typhimurium; conditions: 10 μM and 100 μM; TA98 and TA100, +S9 and –S9
Procedure: In the toxicity studies, in vitro assays for mutagenicity and cytotoxicity were performed on compounds 5 and 6. These compounds were investigated for their mutagenic potential through the Ames assay. Two Salmonella strains TA98 and TA100 with pre-existing mutations (His^-) were selected. Both strains are unable to synthesize histidine (one of the growth requirements for these strains) and therefore cannot form colonies on the agar plate.
Together with the compounds, the Salmonella strains were incubated in the presence (+S9) and absence (–S9) of a metabolizing system “S9 mix” consisting of 9000 g supernatant fraction of rat liver microsomes, nicotinamide adenine dinucleotide phosphate (NADP) and cofactors. Exogenous “S9 mix” was included due to the lack of CYP metabolizing enzymes in Salmonella typhimurium. In the assay, agar plates +S9 and–S9 were used to detect pro-mutagens for cases where the native chemical was not mutagenic but its metabolites were mutagens, and direct-acting mutagens, respectively. […]
In vitro mutagenicity was performed using a modified Ames Test protocol according to manufacturer’s instructions (MolTox). […] The cultures were then measured for absorbance with a UV spectrophotometer at 660 nm and to be used at a density of approximately 1.0 to 1.2 absorbance units. […] Images of colonies were captured and counted with the aid of ImageJ software.

[4] = aqueous solubility; format: physicochemical; conditions: universal aqueous buffer, 22.5 °C, pH 7.4, aqueous buffer, kinetic from dmso stock
Procedure: The 10 μL stock solution of the ligand (10 mM in DMSO) was added to the universal aqueous buffer (pH 7.4), and the mixture was sonicated. 300 μL of the turbid mixture was transferred to the 3 wells of MultiScreen HTS- PCF filter plate (Millipore Corp., Ireland), and the plate was covered and incubated with gentle shaking (250 rpm, 3 h) at room temperature (22.5 ± 2.5°C). After the period of incubation (3 h), the filter plate was placed on a vacuum manifold and the contents were filtered into a 96-well UV plate. After filtration, 200 μL of filtrate was transferred from each well to the PP vial. Absorbances of the solutions were quantified by HPLC-UV and read at 250 nm.

[5] = target: human dopamine D2 receptor (Homo sapiens, UniProt P14416); assay: adenylyl cyclase inhibition (cAMP accumulation) assay in CHO cells transfected with D2 receptor; format: cell-based; design: expressed in transfected cells; host or cells: CHO cells
Sequence of human dopamine D2 receptor (P14416 whole entry): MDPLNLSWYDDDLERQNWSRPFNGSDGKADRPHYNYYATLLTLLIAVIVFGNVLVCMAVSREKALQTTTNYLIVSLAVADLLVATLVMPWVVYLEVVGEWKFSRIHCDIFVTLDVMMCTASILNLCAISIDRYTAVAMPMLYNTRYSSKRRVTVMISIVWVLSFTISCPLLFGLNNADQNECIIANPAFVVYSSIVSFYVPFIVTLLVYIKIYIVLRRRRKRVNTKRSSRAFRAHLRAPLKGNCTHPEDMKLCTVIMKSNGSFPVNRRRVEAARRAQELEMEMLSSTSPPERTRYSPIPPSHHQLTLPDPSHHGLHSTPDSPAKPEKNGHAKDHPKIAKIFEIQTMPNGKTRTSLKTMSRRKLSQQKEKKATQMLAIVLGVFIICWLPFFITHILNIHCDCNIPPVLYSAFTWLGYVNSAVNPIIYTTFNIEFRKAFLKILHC
Procedure: CHO cells transfected with D2 receptors were cultured and then serum starved overnight. Cells were treated with various concentrations of ligands (25 μL of 10X solution), stimulated with forskolin (0.5 μM) and 3-isobutyl-1-methylxanthine (IBMX) (0.5 mM), and incubated for 15 minutes. After lysis, cAMP content was determined by ELISA.

Sequence of human A2A receptors expressed in CHO cells (P29274 whole entry, the tested form may be a part): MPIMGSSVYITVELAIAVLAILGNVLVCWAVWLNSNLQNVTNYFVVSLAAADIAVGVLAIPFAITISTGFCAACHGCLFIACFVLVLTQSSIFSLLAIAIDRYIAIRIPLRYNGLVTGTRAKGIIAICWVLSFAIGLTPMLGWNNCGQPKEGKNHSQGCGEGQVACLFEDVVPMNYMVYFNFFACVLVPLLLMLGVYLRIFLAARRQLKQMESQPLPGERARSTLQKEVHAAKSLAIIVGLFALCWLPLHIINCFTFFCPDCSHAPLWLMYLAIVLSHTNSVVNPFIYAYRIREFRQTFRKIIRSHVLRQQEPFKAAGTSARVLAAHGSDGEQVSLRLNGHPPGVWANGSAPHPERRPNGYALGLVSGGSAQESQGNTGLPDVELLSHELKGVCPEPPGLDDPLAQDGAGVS

| Compound | Ki [1] | hA1/hA2A [1] | hA3/hA2A [1] | Ki [2] [µM] | mutagenicity (number of His+ revertants) [3] | solubility at 3 h ([4]; ambient temperature, pH 7.4, guideline of Kerns et al. [40], read-out: aqueous solubility class) [µg/mL] | solubility at 3 h ([4]; pH 7.4, 3 h, room temperature, read-out: Solubility (μM), 3 h) [µM] | solubility at 3 h ([4]; pH 7.4, 3 h, room temperature, read-out: Solubility (μg/mL), 3 h) [µg/mL] | functional activity at D2 receptor (cAMP accumulation induced by forskolin/IBMX) ([5]; 1 μM, 10 μM and 100 μM) | inhibition of cAMP accumulation (optimal inhibition) ([5]; 100 μM, p = 0.0232) |
| --- | --- | --- | --- | --- | --- | --- | --- | --- | --- | --- |
| Cc1cc(C)nc(N2CCN(C(=O)c3c[nH]c4ccccc34)CC2)n1 [Compound 5, 3‐[4‐(4,6‐Dimethylpyrimidin‐2‐yl)piperazine‐1‐carbonyl]‐1H‐indole] | 11.2 µM and 8.7 to 11.2 µM | >9 | >9 | > 100 | no significant mutagenicity | < 10 | 27 ± 0.32 | 9.07 ± 0.11 | – | – |
| Cc1cc(C)nc(N2CCN(C(=O)Cc3c(C)[nH]c4ccccc34)CC2)n1 [Compound 6, 1‐[4‐(4,6‐Dimethylpyrimidin‐2‐yl)piperazin‐1‐yl]‐2‐(2‐methyl‐1H‐indol‐3‐yl)ethan‐1‐one] | 8.71 µM | >11 | >11 | > 100 | no significant mutagenicity | – | – | – | acted as a D2 receptor agonist | comparable potency to 100 nM of quinpirole |
